Literature values, collected in patent US10722518B2, “Oxazine derivative for use in the treatment or prevention of cerebral amyloid angiopathy” (Novartis AG, priority 2016, dated 2020).

System: APP23 mice
Details: aged APP23 mice treated for three months; cited from earlier work

Cc1cc(C#N)cnc1C(=O)Nc1ccc(F)c([C@]2(C)CO[C@@](C)(C(F)(F)F)C(N)=N2)c1 [NB360]
effect on CAA-related microhaemorrhage (volumetric MRI): no effect
